Molecular target: GST-hMDM2 (aa 1-188) / biotinylated-p53 (aa 1-83) (Homo sapiens (Human), UniProt Q00987)
Assay: Homogenous Time-Resolved Fluorescence Assay (HTRF2 assay), inhibition of HDM2-p53 interaction
Format: binding
Conditions: 0.2 nM GST-hMDM2 (1-188), 0.5 nM biotinylated-p53 (1-83), 0.18 nM SA-XLent, 100 mM KF
Experimental: Residues 1-83 of human p53 were expressed as an amino-terminal AviTag™-TrxA-6×His fusion protein (biotinylated p53) in E. coli. Each protein was purified from cell paste by affinity chromatography.
Specifically, 10 uL of GST-hMDM2 was incubated with 10 ul of diluted compound (various concentrations, serially diluted) in 10% DMSO for 20 minutes at room temperature. 20 uL of biotinylated-p53 was added to the GST-hMDM2+compound mixture, and then incubated at room temperature for 60 min. 10 uL of detection buffer consisting of SA-XLent, anti-GST cryptate antibody and KF was added to GST-hMDM2, biotinylated-p53 and compound reaction and left at room temperature to reach equilibrium for >4 hrs. The final concentration of DMSO in the reaction was 2%. Time-resolved fluorescence readings were measured on a microplate multilabel reader. Percentage of inhibition was calculated relative to nutlin-3.

Chain of GST-hMDM2 (aa 1-188) / biotinylated-p53 (aa 1-83) (Q00987 1-188): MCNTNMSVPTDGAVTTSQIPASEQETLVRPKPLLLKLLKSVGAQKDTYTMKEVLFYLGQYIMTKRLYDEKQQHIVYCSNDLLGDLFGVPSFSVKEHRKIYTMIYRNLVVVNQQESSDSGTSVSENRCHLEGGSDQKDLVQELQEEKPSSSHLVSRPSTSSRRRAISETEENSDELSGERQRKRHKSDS

SMILES | IC50 [nM]
CC(C)(C)S(=O)(=O)C[C@H](C1CC1)N1C(=O)[C@@](C)(Cc2ncc(C(=O)O)s2)O[C@H](c2cccc(Cl)c2)[C@H]1c1ccc(Cl)c(F)c1 (single isomer, unassigned) [Example 5, 2-(((2R,5R,6R)-4-((S)-2-(tert-Butylsulfonyl)-1-cyclopropylethyl)-5-(4-chloro-3-fluorophenyl)-6-(3-chlorophenyl)-2-methyl-3-oxomorpholin-2-yl)methyl)thiazole-5-carboxylic acid or 2-(((2S,5R,6R)-4-((S)-2-(tert-butylsulfonyl)-1-cyclopropylethyl)-5-(4-chloro-3-fluorophenyl)-6-(3-chlorophenyl)-2-methyl-3-oxomorpholin-2-yl)methyl)thiazole-5-carboxylic acid] | 0.121
CC(C)(C)S(=O)(=O)C[C@H](C1CC1)N1C(=O)[C@@](C)(Cc2ccc(C(=O)O)cn2)O[C@H](c2cccc(Cl)c2)[C@H]1c1ccc(Cl)c(F)c1 (single isomer, unassigned) [Example 6, 6-(((2R,5R,6R)-4-((S)-2-(tert-Butylsulfonyl)-1-cyclopropylethyl)-5-(4-chloro-3-fluorophenyl)-6-(3-chlorophenyl)-2-methyl-3-oxomorpholin-2-yl)methyl)nicotinic acid or 6-(((2S,5R,6R)-4-((S)-2-(tert-butylsulfonyl)-1-cyclopropylethyl)-5-(4-chloro-3-fluorophenyl)-6-(3-chlorophenyl)-2-methyl-3-oxomorpholin-2-yl)methyl)nicotinic acid] | 0.11
CC(C)(C)S(=O)(=O)C[C@H](C1CC1)N1C(=O)[C@@](C)(Cc2ccc(C(=O)O)cn2)O[C@H](c2cccc(Cl)c2)[C@H]1c1ccc(Cl)c(F)c1 (single isomer, unassigned) [Example 7, 6-(((2R,5R,6R)-4-((S)-2-(tert-butylsulfonyl)-1-cyclopropylethyl)-5-(4-chloro-3-fluorophenyl)-6-(3-chlorophenyl)-2-methyl-3-oxomorpholin-2-yl)methyl)nicotinic acid or 6-(((2S,5R,6R)-4-((S)-2-(tert-butylsulfonyl)-1-cyclopropylethyl)-5-(4-chloro-3-fluorophenyl)-6-(3-chlorophenyl)-2-methyl-3-oxomorpholin-2-yl)methyl)nicotinic acid] | < 0.1

Results, then the compound that gave them:

IC50 [nM] | SMILES
0.23 | CC(C)(C)S(=O)(=O)C[C@H](C1CC1)N1C(=O)[C@](C)(Cc2ccc(C(=O)O)c[n+]2[O-])O[C@H](c2cccc(Cl)c2)[C@H]1c1ccc(Cl)cc1 (single isomer, unassigned) [Example 3, 2-(((2S,5R,6R)-4-((S)-2-(tert-Butylsulfonyl)-1-cyclopropylethyl)-6-(3-chlorophenyl)-5-(4-chlorophenyl)-2-methyl-3-oxomorpholin-2-yl)methyl)-5-carboxypyridine 1-oxide or 2-(((2R,5R,6R)-4-((S)-2-(tert-Butylsulfonyl)-1-cyclopropylethyl)-6-(3-chlorophenyl)-5-(4-chlorophenyl)-2-methyl-3-oxomorpholin-2-yl)methyl)-5-carboxypyridine 1-oxide]
1.85 | CC(C)(C)S(=O)(=O)C[C@H](C1CC1)N1C(=O)[C@@](C)(Cc2ccc(C(=O)O)c[n+]2[O-])O[C@H](c2cccc(Cl)c2)[C@H]1c1ccc(Cl)cc1 (single isomer, unassigned) [Example 4, 2-(((2R,5R,6R)-4-((S)-2-(tert-butylsulfonyl)-1-cyclopropylethyl)-6-(3-chlorophenyl)-5-(4-chlorophenyl)-2-methyl-3-oxomorpholin-2-yl)methyl)-5-carboxypyridine 1-oxide or 2-(((2S,5R,6R)-4-((S)-2-(tert-butylsulfonyl)-1-cyclopropylethyl)-6-(3-chlorophenyl)-5-(4-chlorophenyl)-2-methyl-3-oxomorpholin-2-yl)methyl)-5-carboxypyridine 1-oxide]

Reference: patent US9758495B2, “Heteroaryl acid morpholinone compounds as MDM2 inhibitors for the treatment of cancer” (AMGEN INC., priority 2013, dated 2017)
